Test results: patent publication US20160158189A1, “SENSITIZATION OF CANCER CELLS TO APOPTOSIS INDUCTION BY FLAVAGLINES AND 5-HYDROXY-FLAVONES” (DEUTSCHES KREBSFORSCHUNGSZENTRUM, priority 2013, published 2016)

Assays:
Jurkat (J16) cells = assay: Apoptotic cell death by DNA fragmentation, Jurkat; assay type: cell-based, human
Method: (§1) The human malignant cell lines used in this study are the T cell leukemic cell lines CEM, Molt-4 and Jurkat (J16), the HL cell line KM-H2, the cervix adenocarcinoma cell line HeLa, the melanoma cell line A375, the hepatocellular carcinoma cell line HepG2, the pancreatic carcinoma cell line MiaPaca, the breast cancer cell line MCF-7, the prostatic cancer cell line PC3 and the colon carcinoma cell line HCT116. All cells were cultured in RPMI 1640 or DMEM medium (GIBCO laboratories, Grand Island, USA), supplemented with 10% FCS, 100 Units/ml penicillin (GIBCO), 100 μg/m1 streptomycin (GIBCO) and 2 mM L-glutamine (GIBCO) at 37° C. and 5%. Wogonin (BIOTREND Chemicals AG, Wangen, Switzerland), apigenin, chrysin, luteolin and baicalein (Sigma, St. Louis, USA) were solved in dimethyl sulfoxide (DMSO; Roth, Karlsruhe, Germany) at a stock concentration of 50 mM. Cells were treated with different concentrations of different flavones or ABT-263 (Selleck Chemicals, Houston, USA) for 24 to 48 h. Apoptotic cell death was examined by analysis of DNA fragmentation as previously described 23 (Fas et al.,2006, Blood 108: 3700-6). Results are presented as % specific DNA fragmentation using the formula: (percentage of experimental apoptosis-percentage of spontaneous apoptosis)/(100-percentage of spontaneous apoptosis)×100.

CEM cells = assay: Apoptotic cell death by DNA fragmentation, CEM; assay type: cell-based, human; conditions: for effect on ABT-263-induced apoptosis: ABT-263 plus 10 μM flavone, 30 h
Method: as §1

Molt-4 cells = assay: Apoptotic cell death by DNA fragmentation, Molt-4; assay type: cell-based, human
Method: as §1

Mcl-1 = assay: Western blot analysis of Mcl-1 expression; assay type: cell-based, human; conditions: for Mcl-1 protein expression: 50 μM flavone
Source text: For each sample, 1×10^7 cells were lysed as previously described. 23 Equal amounts of protein were separated on 5-13% SDS-PAGE depending on the molecular sizes of the proteins and blotted onto a nitrocellulose membrane (Amersham Biosciences, Little Chalfon, UK) as previously described. 23 The following antibodies were used: Bad, Bax, Bcl-xL, Bcl-w, XIAP from Cell Signaling Technology, Danvers, USA; Bcl-2 (sc-509) and Mcl-1 (sc-819) from Santa Cruz Biotechnology, Heidelberg, Germany; Tubulin and actin from Sigma, Saint Louis, USA.

melanoma cell line A375 = assay: Apoptotic cell death by DNA fragmentation, A375; assay type: cell-based, human; conditions: ABT-263 plus 50 μM wogonin, 48 h
Method: as §1

[1] = tested on: colon carcinoma cell line HCT116; assay: Apoptotic cell death by DNA fragmentation, HCT116; assay type: cell-based, human; conditions: ABT-263 plus 50 μM wogonin, 48 h
Method: as §1

[2] = tested on: hepatocellular carcinoma cell line HepG2; assay: Apoptotic cell death by DNA fragmentation, HepG2; assay type: cell-based, human; conditions: HepG2; ABT-263 plus 50 μM wogonin, 48 h
Method: as §1

[3] = tested on: breast cancer cell line MCF-7; assay: Apoptotic cell death by DNA fragmentation, MCF-7; assay type: cell-based, human; conditions: ABT-263 plus 50 μM wogonin, 48 h
Method: as §1

[4] = tested on: prostatic cancer cell line PC3; assay: Apoptotic cell death by DNA fragmentation, PC3; assay type: cell-based, human; conditions: ABT-263 plus 50 μM wogonin, 48 h
Method: as §1

[5] = tested on: cervix adenocarcinoma cell line HeLa; assay: Apoptotic cell death by DNA fragmentation, HeLa; assay type: cell-based, human; conditions: ABT-263 plus 50 μM wogonin, 48 h
Method: as §1

[6] = tested on: ABT-263-resistant Jurkat (Jurkat-R); assay: Apoptotic cell death by DNA fragmentation, ABT-263-resistant Jurkat; assay type: cell-based, human; conditions: Jurkat-R; ABT-263 with wogonin
Method: (§2) Wogonin (BIOTREND Chemicals AG, Wangen, Switzerland), apigenin, chrysin, luteolin and baicalein (Sigma, St. Louis, USA) were solved in dimethyl sulfoxide (DMSO; Roth, Karlsruhe, Germany) at a stock concentration of 50 mM. Cells were treated with different concentrations of different flavones or ABT-263 (Selleck Chemicals, Houston, USA) for 24 to 48 h. Apoptotic cell death was examined by analysis of DNA fragmentation as previously described 23 (Fas et al.,2006, Blood 108: 3700-6). Results are presented as % specific DNA fragmentation using the formula: (percentage of experimental apoptosis-percentage of spontaneous apoptosis)/(100-percentage of spontaneous apoptosis)×100.

[7] = tested on: ABT-263-resistant CEM (CEM-R); assay: Apoptotic cell death by DNA fragmentation, ABT-263-resistant CEM; assay type: cell-based, human; conditions: CEM-R; ABT-263 with wogonin
Method: as §2

[8] = tested on: proliferating normal peripheral blood T cells; assay: Apoptotic cell death by DNA fragmentation, proliferating normal T cells; assay type: cell-based; conditions: ABT-263 with wogonin, four healthy donors
Method: (§3) Normal T cells were isolated from peripheral blood of healthy donors and activated to proliferate as described in the Materials and Methods. The proliferating T cells were treated with different concentrations of ABT-263 in the absence or presence of wogonin as indicated. Apoptotic cell death was determined by DNA fragmentation. Results are presented as pooled data from four independent donors. (B) Proliferating normal T cells express higher levels of Mcl-1 and Bcl-2 than leukemic Jurkat and Molt-4 T cells. Total cell lysates of activated T cells from three healthy donors were compared with leukemic cells for the expression levels of Mcl-1, Bcl-2, Bcl-xL and Bcl-w. CDK6 is known to be over-expressed in many tumor cells and was used as a marker for malignant cells. Representative blots from two independent experiments are shown. […] Human platelets in 10% FCS were treated with different concentrations of ABT-263 in the absence or presence of wogonin as indicated. After 1 h treatment, apoptotic cell death was determine by staining with annexin V/FITC. Results are average of two independent assays.
Human peripheral blood T cells were prepared as described previously 23 and were more than 90% CD3 positive. For generation of proliferating T cells, freshly isolated T cells were cultured at 2×10^6 cells/ml and were activated with […] PHA overnight. Activated T cells were then washed three times and cultured for additional 5 days in the presence of 25 U/ml IL-2. Platelets were prepared as described in Vogler et al., 2011, Blood 117: 7145-54.
as §2, with “Results are presented as % specific DNA fragmentation using the formula: (percentage of experimental apoptosis-percentage of spontaneous apoptosis)/(100-percentage of spontaneous apoptosis)×100.” left out

Human platelets = assay: Platelet apoptotic cell death by annexin V/FITC staining; assay type: cell-based; conditions: ABT-263 with wogonin, 1 h
Method: as §3
Human peripheral blood T cells were prepared as described previously 23 and were more than 90% CD3 positive. For generation of proliferating T cells, freshly isolated T cells were cultured at 2×10^6 cells/ml and were activated with 1 mg/ml PHA overnight. […]

CEM tumors = assay: CEM xenograft in immunodeficient mice; assay type: in vivo; conditions: Rag2-/-/Il2rg-/- mice, s.c. CEM; ABT-263 50 mg/kg p.o. and/or wogonin 50 mg/kg i.p.
Method: Immunodeficient mice (Rag2−/−/II2rg−/−) were implanted subcutaneously in the dorsal flank region with CEM (5×10^7 cells). After the tumors reached to approximate 35 mm3, tumor size matched mice were treated with ABT-263 (50 mg/kg, once in each third or fourth day) in the presence or absence of 50 mg/kg wogonin. ABT-263 was formulated according to the protocol previously described 9 and administered p.o. Wogonin dissolved in DMSO was diluted in sunflower oil and administered i.p. For combination studies, ABT-263 was given 2 h before wogonin. The control group was treated in an analogous manner with the vehicle. The tumor size was measured with a micrometer caliper two to three times weekly and the tumor volume (V) was calculated by the formula V=(width2×length)/2. All protocols using and maintaining animals were approved by the German Animal Protection Authority (Office Regierungsprasidium Karlsruhe) in Karlsruhe.

[9] = Jurkat 16, ABT-199 with wogonin
[10] = ABT-263 plus different concentrations of wogonin, 24 h
[11] = wogonin alone at the concentrations used for combination, 24 h

## CC1(C)CCC(CN2CCN(c3ccc(C(=O)NS(=O)(=O)c4ccc(NCC5CCOCC5)c([N+](=O)[O-])c4)c(Oc4cnc5[nH]ccc5c4)c3)CC2)=C(c2ccc(Cl)cc2)C1 [ABT-199, 4-[4-[[2-(4-chlorophenyl)-4,4-dimethyl-1-cyclohexen-1-yl]methyl]-1-piperazinyl]-N-[[3-nitro-4-[[(tetrahydro-2H-pyran-4-yl)methyl]amino]phenyl]sulfonyl]-2-(1H-pyrrolo[2,3-b]pyridin-5-yloxy)-Benzamide]
Jurkat (J16) cells; Homo sapiens, Jurkat 16, ABT-199 alone, read-out: concentration inducing 50% apoptotic cell death
  EC50: 5 to 10 µM
CEM cells; Homo sapiens, CCRF-CEM, ABT-199 alone, read-out: concentration inducing 50% apoptotic cell death
  EC50: 5 to 10 µM
Molt-4 cells; Homo sapiens, ABT-199 alone, read-out: concentration inducing 50% apoptotic cell death
  EC50: 5 to 10 µM

## O=c1cc(-c2ccc(O)cc2)oc2cc(O)cc(O)c12 [Apigenin]
CEM cells
  effect on ABT-263-induced apoptosis: enhance ABT-263-induced apoptosis in CEM cells in a dose-dependent manner
Mcl-1; CEM, 8 h
  Mcl-1 protein expression: Down-regulation of Mcl-1 protein expression

## O=c1cc(-c2ccccc2)oc2cc(O)c(O)c(O)c12 [baicalein]
CEM cells
  effect on ABT-263-induced apoptosis: enhance ABT-263-induced apoptosis in CEM cells in a dose-dependent manner
Mcl-1; CEM, 8 h
  Mcl-1 protein expression: Down-regulation of Mcl-1 protein expression

## O=c1cc(-c2ccccc2)oc2cc(O)cc(O)c12 [chrysin]
CEM cells
  effect on ABT-263-induced apoptosis: enhance ABT-263-induced apoptosis in CEM cells in a dose-dependent manner
Mcl-1; CEM, 8 h
  Mcl-1 protein expression: Down-regulation of Mcl-1 protein expression

## O=c1cc(-c2ccc(O)c(O)c2)oc2cc(O)cc(O)c12 [luteolin]
CEM cells
  effect on ABT-263-induced apoptosis: enhance ABT-263-induced apoptosis in CEM cells in a dose-dependent manner
Mcl-1; CEM, 8 h
  Mcl-1 protein expression: Down-regulation of Mcl-1 protein expression

## COc1c(O)cc(O)c2c(=O)cc(-c3ccccc3)oc12 [wogonin, 5,7-dihydroxy-8-methoxy-2-phenyl-4H-chromen-4-one]
Jurkat (J16) cells; [9]
  reduction of the ABT-199 dose: approx. 5 fold
  sensitization to ABT-199-mediated apoptosis: sensitized
Jurkat (J16) cells; Jurkat, ABT-263 plus different concentrations of wogonin, 24 h
  effect on killing efficacy of ABT-263: enhanced the killing efficacy of ABT-263 in a dose-dependent manner
Jurkat (J16) cells; Jurkat, in presence of wogonin
  reduction of ABT-263 dose required for inducing 50-70% cell death: approximately 10 times
Jurkat (J16) cells; Jurkat, wogonin alone at the concentrations used for combination, 24 h
  cell death by wogonin alone: only minimal cell death
CEM cells; ABT-199 with wogonin
  reduction of the ABT-199 dose: approx. 5 fold
  sensitization to ABT-199-mediated apoptosis: sensitized
CEM cells; [10]
  effect on killing efficacy of ABT-263: enhanced the killing efficacy of ABT-263 in a dose-dependent manner
CEM cells; in presence of wogonin
  reduction of ABT-263 dose required for inducing 50-70% cell death: approximately 10 times
CEM cells; [11]
  cell death by wogonin alone: only minimal cell death
Molt-4 cells; ABT-199 with wogonin
  reduction of the ABT-199 dose: approx. 5 fold
  sensitization to ABT-199-mediated apoptosis: sensitized
Molt-4 cells; [10]
  effect on killing efficacy of ABT-263: enhanced the killing efficacy of ABT-263 in a dose-dependent manner
Molt-4 cells; in presence of wogonin
  reduction of ABT-263 dose required for inducing 50-70% cell death: approximately 10 times
Molt-4 cells; [11]
  cell death by wogonin alone: only minimal cell death
Melanoma cell line A375
  effect on ABT-263-mediated apoptotic cell death: dose-dependent increase
[1]
  effect on ABT-263-mediated apoptotic cell death: dose-dependent increase
[2]
  effect on ABT-263-mediated apoptotic cell death: dose-dependent increase
[3]
  effect on ABT-263-mediated apoptotic cell death: dose-dependent increase
[4]
  effect on ABT-263-mediated apoptotic cell death: dose-dependent increase
[5]
  effect on ABT-263-mediated apoptotic cell death: dose-dependent increase
[6]
  re-sensitization to ABT-263-induced apoptotic cell death: re-sensitized to ABT-263 treatment
[7]
  re-sensitization to ABT-263-induced apoptotic cell death: re-sensitized to ABT-263 treatment
[8]
  effect on toxicity of ABT-263 to normal proliferating T cells: did not enhance the toxicity of ABT-263
[8]; listed as Wogonin
  effect on toxicity of ABT-263 to normal proliferating T cells: does not potentiate the toxicity of ABT-263
Human platelets
  effect on toxicity of ABT-263 to platelets: did not enhance the toxicity of ABT-263
Human platelets; listed as Wogonin
  effect on toxicity of ABT-263 to platelets: does not enhance the toxicity of ABT-263
Mcl-1; ABT-263-resistant Jurkat and CEM, wogonin
  Mcl-1 expression: significantly inhibited Mcl-1 expression
Mcl-1; CEM, Jurkat and Molt-4, 50 μM wogonin, 8 h
  Mcl-1 expression: down-regulation of Mcl-1 expression
Mcl-1; CEM, Jurkat and Molt-4, 50 μM wogonin, 8 h, listed as Wogonin
  Mcl-1 expression: down-regulates Mcl-1 expression
Mcl-1; all tumor cell lines tested other than MiaPaca, 50 μM wogonin, 8 h
  Mcl-1 expression: down-regulated
CEM tumors
  tumor growth / tumor response: no significant inhibition of tumor growth
